Consider three molecules from paper PMC5075789, “Orphan GPR110 (ADGRF1) targeted by N-docosahexaenoylethanolamine in development of neurons and cognitive function” (Nature Communications, 2016).

Usually pKd stands for the negative decadic logarithm of the Kd, by convention in mol/L.

SMILES strings stand for the structures. pKd: −log10 of the molar value.

For experiment [1], the target named is T1, mGPR110-HA (mouse GPR110) (Mus musculus, UniProt Q8VEC3).
T1 construct: gene Adgrf1; full-length ORF, C-terminal HA tag kept, expressed in HEK293; about 100 kD main band
T1 sequence (Q8VEC3 21-564): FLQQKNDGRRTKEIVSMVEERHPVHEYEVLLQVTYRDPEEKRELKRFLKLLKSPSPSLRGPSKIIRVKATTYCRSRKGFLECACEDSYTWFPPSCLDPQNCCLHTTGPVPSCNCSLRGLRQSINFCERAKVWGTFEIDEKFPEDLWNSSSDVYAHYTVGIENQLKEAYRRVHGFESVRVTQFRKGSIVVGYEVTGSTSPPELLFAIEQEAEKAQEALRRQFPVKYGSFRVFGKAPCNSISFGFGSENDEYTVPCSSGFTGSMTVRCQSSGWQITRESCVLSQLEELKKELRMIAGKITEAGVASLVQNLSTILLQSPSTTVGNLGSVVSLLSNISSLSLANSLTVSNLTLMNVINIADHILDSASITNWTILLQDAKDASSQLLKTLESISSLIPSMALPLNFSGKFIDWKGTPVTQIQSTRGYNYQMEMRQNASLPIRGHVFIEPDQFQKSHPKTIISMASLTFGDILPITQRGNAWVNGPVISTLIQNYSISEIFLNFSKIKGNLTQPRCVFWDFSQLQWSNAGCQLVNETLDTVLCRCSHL
T1 sequence (Q8VEC3 565-908): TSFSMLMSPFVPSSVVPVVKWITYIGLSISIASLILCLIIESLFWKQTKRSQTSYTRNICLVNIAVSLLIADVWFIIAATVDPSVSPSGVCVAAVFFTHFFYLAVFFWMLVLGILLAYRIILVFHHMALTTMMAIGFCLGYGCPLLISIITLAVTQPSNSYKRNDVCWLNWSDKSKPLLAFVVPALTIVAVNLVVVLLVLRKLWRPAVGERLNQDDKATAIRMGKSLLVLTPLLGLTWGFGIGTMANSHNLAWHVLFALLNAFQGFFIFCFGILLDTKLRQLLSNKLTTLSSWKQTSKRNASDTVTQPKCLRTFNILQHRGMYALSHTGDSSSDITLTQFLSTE
Briefly: streptavidin pull-down and western blot. Type of experiment: binding. To be noted: 1 μM G1, HEK293 lysate, PBS with 0.5% Triton X-100. (In western blotting, separated proteins are transferred to a membrane and probed.)

In experiment [2] the target is T2, hGPR110-HA (human GPR110, ADGRF1) (Homo sapiens, UniProt Q5T601).
T2 construct: full-length ORF, 910 residues, C-terminal HA tag kept, expressed in HEK293 (CRE-luc2P HEK293 for cAMP); immunopurified with anti-HA for MST; glycosylated, about 130 and 110 kD
T2 sequence (Q5T601 20-566): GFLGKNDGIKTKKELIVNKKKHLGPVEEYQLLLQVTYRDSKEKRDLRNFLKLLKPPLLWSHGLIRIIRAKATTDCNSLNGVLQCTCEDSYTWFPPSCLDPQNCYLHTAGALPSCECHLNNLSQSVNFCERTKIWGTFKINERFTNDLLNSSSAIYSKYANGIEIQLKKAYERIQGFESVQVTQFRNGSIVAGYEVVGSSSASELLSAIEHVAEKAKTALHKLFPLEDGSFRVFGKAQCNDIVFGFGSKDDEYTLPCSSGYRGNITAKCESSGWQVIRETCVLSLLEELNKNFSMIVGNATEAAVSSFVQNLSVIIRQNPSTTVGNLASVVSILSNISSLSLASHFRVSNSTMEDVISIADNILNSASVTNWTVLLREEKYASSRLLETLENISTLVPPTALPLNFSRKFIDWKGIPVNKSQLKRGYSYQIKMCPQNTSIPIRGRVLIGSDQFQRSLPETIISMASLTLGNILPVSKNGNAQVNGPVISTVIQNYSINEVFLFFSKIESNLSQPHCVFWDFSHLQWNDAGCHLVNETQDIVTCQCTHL
T2 sequence (Q5T601 567-910): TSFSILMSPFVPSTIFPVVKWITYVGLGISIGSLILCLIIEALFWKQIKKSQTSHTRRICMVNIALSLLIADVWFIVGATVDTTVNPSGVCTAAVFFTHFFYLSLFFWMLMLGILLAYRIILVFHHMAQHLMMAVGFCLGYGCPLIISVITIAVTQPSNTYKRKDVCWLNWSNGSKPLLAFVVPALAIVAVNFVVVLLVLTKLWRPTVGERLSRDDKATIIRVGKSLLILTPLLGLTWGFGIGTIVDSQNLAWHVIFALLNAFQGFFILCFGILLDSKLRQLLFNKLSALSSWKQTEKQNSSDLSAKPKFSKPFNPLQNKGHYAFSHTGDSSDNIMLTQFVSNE
Kind of experiment: streptavidin pull-down and western blot. To be noted: 1 μM G1, HEK293 lysate. In kind it is binding.

Experiment [3] has as its target T2, hGPR110-HA (human GPR110, ADGRF1). Kind of experiment: microscale thermophoresis. As to conditions: read-out: apparent Kd. An excerpt:
microscale thermophoresis on hGPR110-HA (human GPR110, ADGRF1) | immunopurified hGPR110 and bodipy-synaptamide, a fluorescent synaptamide analogue, indicated apparent Kd

Experiment [4] has as its target T1, mGPR110-HA (mouse GPR110). Kind of experiment: in-cell cross-linking (DSS), streptavidin pull-down, western blot. To be noted: 1 μM G1*, live HEK293 cells, 25 °C; cross-linked by 1 mM DSS. Type of experiment: cell-based.

Consider `CC/C=C\C/C=C\C/C=C\C/C=C\C/C=C\C/C=C\CCC(=O)NCCNC(=O)CCCC[C@@H]1SC[C@@H]2NC(=O)N[C@@H]21` [G1, (4Z,7Z,10Z,13Z,16Z,19Z)-N-(2-(5-((3aS,4S,6aR)-2-oxohexahydro-1H-thieno(3,4-d)imidazol-4-yl)pentanamido)ethyl)docosa-4,7,10,13,16,19-hexaenamide], for which the “streptavidin pull-down and western blot” value is reported as “confirming binding of G1 to the expressed mGPR110-HA” in experiment [1] and “hGPR110 showed G1 binding which was displaced by synaptamide” in experiment [2]. In the case of `CC/C=C\C/C=C\C/C=C\C/C=C\C/C=C\C/C=C\CCC(=O)NCCNC(=O)CCCCC1=C2C(C)=CC(C)=[N+]2[B-](F)(F)n2c(C)cc(C)c21` [bodipy-synaptamide, 10-(5-((2-((4Z,7Z,10Z,13Z,16Z,19Z)-docosa-4,7,10,13,16,19-hexaenamido)ethyl)amino)-5-oxopentyl)-5,5-difluoro-1,3,7,9-tetramethyl-5H-dipyrrolo(1,2-c:2',1'-f)(1,3,2)diazaborinin-4-ium-5-uide], the pKd in experiment [3] was roughly 7.70. Take `CC/C=C\C/C=C\C/C=C\C/C=C\C/C=C\C/C=C\CCC(=O)NCCCC(CCCN)NC(=O)CCCC[C@@H]1SC[C@@H]2NC(=O)N[C@@H]21` (stereo partly drawn) [G1*, (4Z,7Z,10Z,13Z,16Z,19Z)-N-(7-amino-4-(5-((3aS,4S,6aR)-2-oxohexahydro-1H-thieno(3,4-d)imidazol-4-yl)pentanamido)heptyl)docosa-4,7,10,13,16,19-hexaenamide]: in experiment [4], the “in-cell cross-linking (DSS), streptavidin pull-down, western blot” value is “confirming G1* binding to GPR110-HA in live HEK cells”.
